Patent publication US20210332024A1, “MODULATORS OF PIN1 ACTIVITY AND USES THEREOF” (Yeda Research and Development Co. Ltd., priority 2019, published 2021)

Tests used:
[1] = test system: Pin1-knockout 8988T pancreatic cancer cells; assay: Prolonged-treatment cell growth, Pin1-knockout 8988T; type: cell-based; conditions: 1 μM
Procedure: (§1) The ability of Pin1-3 treatment to induce more pronounced anti-proliferative effects after prolonged treatment (6-8 days) was then assessed. In order to ensure that target engagement was maintained for the duration of the experiment, Pin1-3 was replenished in fresh media every 48 hours.
The effect of Pin1-binding compounds on 8988T pancreatic adenocarcinoma cells was assessed by incubating cells with 1 μM Pin1-3, and evaluating cell growth relative to cells incubated with vehicle (DMSO) alone. In order to confirm that the effect of Pin1-3 is mediated by Pin1, the experiment was repeated using Pin1 knockout cells.

Pin1 = biological target: T1, Pin1 (Homo sapiens, UniProt Q13526); assay: Pin1 levels in PDAC cells (Western blot); type: cell-based; conditions: treated for 3 days
T1 construct: endogenous in cells; host or cells: patient-derived PDAC cells
Procedure: Pancreatic ductal adenocarcinoma (PDAC) cells (derived from a human patient) were treated with Pin1-3 for 3 days. PDAC organoids were treated with Pin1-3 for 7 days (day 7 to day 14).

catalytic domain of Pin1 = biological target: T2, catalytic domain of Pin1 (Homo sapiens, UniProt Q13526); assay: Intact protein LC/MS labeling of Pin1; type: binding
T2 construct: The purified catalytic domain of Pin1 was incubated with the fragment library

[2] = test system: wild-type 8988T pancreatic cancer cells; assay: Organoid growth in Matrigel, wild-type PATU-8988T; type: cell-based; conditions: 1 μM, 9 days
Procedure: As three dimensional (3D) organoid models can reflect in vivo results better than monolayer cell culture [Baker et al., Trends Cancer Res 2016, 2:176-190], the anti-proliferative activity of Pin1-3 in PATU-8988T was further evaluated in wild-type or Pin1-knockout cells grown as organoids in Matrigel™ droplets. Cells were treated for 9 days with Pin1-3 (or Pin1-3-AcA or vehicle as a control), replenishing the compound in media every 3 days.

[3] = test system: PC3 prostate cancer cells; assay: Prolonged-treatment cell growth, PC3; type: cell-based; conditions: PC3, 1 or 2.5 μM
Procedure: as §1

GST-Pin1 = GST-Pin1 (Homo sapiens, UniProt Q13526); assay: Pin1 substrate activity assay (chymotrypsin-coupled PPIase assay); type: biochemical; conditions: pre-incubation 12 hours at 4° C.
Procedure: Inhibition of Pin1 isomerase activity was determined using the chymotrypsin-coupled PPIase assay, using GST-Pin1 and Suc-Ala-pSer-Pro-Phe-pNA (SEQ ID NO: 2) peptide substrate ([…]), according to procedures described by Yaffe [Science 1997, 278:1957-1960]. GST-Pin1 was pre-incubated with the indicated concentrations of compound for 12 hours at 4° C. in buffer containing 35 mM HEPES (pH 7.8), 0.2 mM DTT, and 0.1 mg/ml BSA (bovine serum albumin). Immediately before the assay was started, chymotrypsin (final concentration of 6 mg/ml), followed by the peptide substrate (Suc-Ala-pSer-Pro-Phe-pNA (SEQ ID NO: 2) peptide substrate, final concentration […]) was added. The apparent Ki value (under the tested conditions) obtained from the PPIase assay was derived from the Cheng-Prusoff equation: […]
wherein Km is the Michaelis constant for the used substrate, S is the initial concentration of the substrate in the assay, and IC50 is the half-minimal inhibitory concentration of the inhibitor.
Covalent labeling of Pin1 was confirmed to translate into enzyme inhibition via a fluorescence polarization (FP) competition assay using a FITC-labeled substrate mimetic peptide inhibitor, as well as a chymotrypsin-coupled PPIase assay, using procedures described in Wei et al. [Nat Med 2015, 21:457-466].

T2 sequence (Q13526 52-163 limits assumed): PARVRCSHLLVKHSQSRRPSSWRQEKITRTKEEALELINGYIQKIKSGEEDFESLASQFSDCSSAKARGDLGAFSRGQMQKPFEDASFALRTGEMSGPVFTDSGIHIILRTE
T1 sequence (Q13526 whole entry): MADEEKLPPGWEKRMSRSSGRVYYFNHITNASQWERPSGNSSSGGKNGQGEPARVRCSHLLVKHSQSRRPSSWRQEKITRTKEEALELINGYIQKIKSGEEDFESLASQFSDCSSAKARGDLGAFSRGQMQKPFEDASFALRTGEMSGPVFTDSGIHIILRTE
Sequence of GST-Pin1 (Q13526 whole entry): as above

## CC(C)(C)CN(C(=O)CCl)C1CCS(=O)(=O)C1 (stereo not shown) [Pin1-3, 2-chloro-N-(sulfolan-3-yl)-N-neopentylacetamide]
[1]
  Cell viability / growth: no considerable effect
Pin1
  Pin1 levels in PDAC cells: reduced Pin1 in PDAC cells in a dose-dependent manner
Catalytic domain of Pin1; 2 μM Pin1 with 2 μM test compound for 15 minutes at room temperature
  Labeling [%]: 10%
Catalytic domain of Pin1; 2 μM Pin1 with 2 μM test compound for 1 hour at room temperature
  Labeling [%]: 48%
[2]
  Organoid growth: significantly retarded organoid growth
[3]
  Cell growth: long-term inhibition
GST-Pin1
  IC50: 0.103 µM
